Marks after values point to notes of the source that are not given here.
Columns and labels:
[1] = test system: vancomycin-resistant Enterococcus faecalis (VanA VRE, BM4166); settings: E. faecalis (BM4166, VanA VRE); earlier studies; cited from earlier work
[2] = cited from earlier work; for ligand, Ka (M^−1), 11, Y = NH: association constant, ligand 11 (Y = NH)
[3] = association constant, ligand 12 (Y = O); cited from earlier work
[4] = Binding of model ligand 11 (Y = NH), association constant Ka; settings: ratio of Ka for ligand 11 to ligand 12
[5] = test system: vancomycin-resistant Enterococcus faecalis (VanA VRE, BM4166); test: microbe, parasite or virus in culture; assay type: cell-based; settings: E. faecalis (BM4166, VanA VRE); tested herein alongside Compounds 1-6
Procedure: Assays were carried out following the methods of Clinical and Laboratory Standards Institute; Methods for Dilution Antimicrobial Susceptibility Tests for Bacteria That Grow Aerobically; Approved Standard, […].; CLSI document M07-A8; Clinical and Laboratory Standards Institute: Wayne, Pa., 2009.
This diluted bacterial stock solution was then inoculated into a well of a V-shaped 96-well glass coated microtiter plate, supplemented with serial diluted aliquots of the antibiotic solution DMSO (4 μL), to achieve a total assay volume of 0.1 mL. The plate was then incubated at 37° C. for 18 hours, after which minimal inhibitory concentrations (MICs) were determined by monitoring the cell growth (observed as a pellet) in the wells. The lowest concentration of antibiotic (in μg/mL) capable of eliminating the cell growth in the wells is reported as the MIC.

Molecule	VanA MIC [1] [µg/mL]	ligand, Ka (M^−1), 11, Y = NH [2] [M⁻¹]	ligand, Ka (M^−1), 12, Y = O [3] [M⁻¹]	Ka(11/12) [4]	VanA MIC, μg/mL [5]	binding affinity for both target ligands relative to vancomycin aglycon with D-Ala-D-Ala ([2]; D-Ala-D-Ala and D-Ala-D-Lac) [fold]
CN[C@H](CC(C)C)C(=O)N[C@H]1C(=O)N[C@@H](CC(N)=O)C(=O)N[C@H]2C(=O)N[C@H]3C(=O)N[C@H](C(=O)N[C@H](C(=O)O)c4cc(O)cc(O)c4-c4cc3ccc4O)[C@H](O)c3ccc(c(Cl)c3)Oc3cc2cc(c3O)Oc2ccc(cc2Cl)[C@H]1O [Compound 7, vancomycin aglycon]	640	170000	120	1400		
CN[C@H](CC(C)C)C(=O)N[C@H]1C(=O)N[C@@H](CC(N)=O)C(=O)N[C@H]2C(=S)NC3C(=O)N[C@H](C(=O)N[C@H](C(=O)O)c4cc(O)cc(O)c4-c4cc3ccc4O)[C@H](O)c3ccc(c(Cl)c3)Oc3cc2cc(c3O)Oc2ccc(cc2Cl)[C@H]1O [Compound 8, [Ψ[C(═S)NH]Tpg^4]vancomycin aglycon]	>640	170	11			
CN[C@H](CC(C)C)C(=O)N[C@H]1C(=O)N[C@@H](CC(N)=O)C(=O)N[C@H]2C(=N)NC3C(=O)N[C@H](C(=O)N[C@H](C(=O)O)c4cc(O)cc(O)c4-c4cc3ccc4O)[C@H](O)c3ccc(c(Cl)c3)Oc3cc2cc(c3O)Oc2ccc(cc2Cl)[C@H]1O [Compound 9, [Ψ[C(═NH)NH]Tpg^4]vancomycin aglycon]		73000	69000	1.05	1^b μg/mL	≤ 2
[Ψ[CH2NH]Tpg^4]vancomycin aglycon [Compound 10]	31	4800	5200	0.9		

— patent publication US10577395B2 (priority 2014, dated 2020)
